Test results reported in patent US9206184B2, “Disubstituted benzothienyl-pyrrolotriazines and uses thereof” (BAYER INTELLECTUAL PROPERTY GmbH, priority 2011, dated 2015).
Where a name gives a salt, the structure may show the parent alone.

Key:
human mTOR = human mTOR (Homo sapiens (Human), UniProt P42345); assay: mTOR kinase assay (TR-FRET, for comparative purposes); format: biochemical; conditions: mean inhibition at 1 μM test compound; 40 μM ATP
human FGFR-3 = human FGFR-3 (Homo sapiens (Human), UniProt P22607); assay: FGFR-3 kinase assay (TR-FRET); format: biochemical; conditions: 10 μM ATP, 15 min pre-incubation with enzyme, compounds of the invention
[1] = system: Human umbilical vein endothelial cells (HUVEC); assay: Inhibition of growth factor-mediated cell proliferation (hFGF-2, HUVEC); format: cell-based; conditions: 72 h, read-out: hFGF-2 mediated HUVEC proliferation, IC50 [nM]
human FGFR-1 = human FGFR-1 (Homo sapiens, UniProt P11362); assay: FGFR-1 high ATP kinase assay (TR-FRET); format: biochemical; conditions: 2 mM ATP; 15 min pre-incubation with enzyme; compounds of the invention
Chain of human FGFR-1 (P11362 22-822 limits assumed): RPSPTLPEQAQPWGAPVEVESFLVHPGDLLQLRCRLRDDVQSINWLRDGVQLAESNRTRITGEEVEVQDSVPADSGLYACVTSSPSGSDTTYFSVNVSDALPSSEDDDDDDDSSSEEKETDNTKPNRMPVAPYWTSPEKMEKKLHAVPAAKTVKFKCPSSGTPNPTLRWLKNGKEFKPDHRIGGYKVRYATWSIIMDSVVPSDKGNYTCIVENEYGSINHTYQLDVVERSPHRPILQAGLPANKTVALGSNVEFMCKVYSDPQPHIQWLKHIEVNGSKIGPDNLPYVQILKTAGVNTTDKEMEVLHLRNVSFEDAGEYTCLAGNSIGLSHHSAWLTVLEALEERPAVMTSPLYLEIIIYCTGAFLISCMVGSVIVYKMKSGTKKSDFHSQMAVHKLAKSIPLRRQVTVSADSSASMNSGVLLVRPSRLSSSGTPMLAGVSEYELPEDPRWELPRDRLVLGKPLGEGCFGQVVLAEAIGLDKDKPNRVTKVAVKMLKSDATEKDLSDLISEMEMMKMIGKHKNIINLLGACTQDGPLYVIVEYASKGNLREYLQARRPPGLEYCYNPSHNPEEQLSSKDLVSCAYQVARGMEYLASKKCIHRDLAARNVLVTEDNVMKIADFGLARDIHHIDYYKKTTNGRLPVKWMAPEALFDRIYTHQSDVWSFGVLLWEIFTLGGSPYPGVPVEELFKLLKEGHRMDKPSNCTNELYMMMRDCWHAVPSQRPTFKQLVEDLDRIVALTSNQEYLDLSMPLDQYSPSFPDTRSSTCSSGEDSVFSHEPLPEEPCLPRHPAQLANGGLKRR

Chain of human FGFR-3 (P22607 397-806): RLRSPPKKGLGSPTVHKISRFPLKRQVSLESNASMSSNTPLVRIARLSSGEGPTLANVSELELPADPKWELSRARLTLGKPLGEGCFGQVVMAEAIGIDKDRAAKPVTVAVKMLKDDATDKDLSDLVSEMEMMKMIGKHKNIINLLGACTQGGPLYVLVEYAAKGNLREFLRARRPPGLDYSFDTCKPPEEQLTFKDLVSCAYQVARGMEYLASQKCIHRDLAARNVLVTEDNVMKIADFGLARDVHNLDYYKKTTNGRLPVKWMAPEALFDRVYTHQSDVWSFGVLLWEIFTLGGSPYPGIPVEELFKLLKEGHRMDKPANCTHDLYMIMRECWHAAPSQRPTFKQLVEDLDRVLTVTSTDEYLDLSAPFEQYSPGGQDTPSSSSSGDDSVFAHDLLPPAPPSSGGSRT
Chain of human mTOR (P42345 1360-2549): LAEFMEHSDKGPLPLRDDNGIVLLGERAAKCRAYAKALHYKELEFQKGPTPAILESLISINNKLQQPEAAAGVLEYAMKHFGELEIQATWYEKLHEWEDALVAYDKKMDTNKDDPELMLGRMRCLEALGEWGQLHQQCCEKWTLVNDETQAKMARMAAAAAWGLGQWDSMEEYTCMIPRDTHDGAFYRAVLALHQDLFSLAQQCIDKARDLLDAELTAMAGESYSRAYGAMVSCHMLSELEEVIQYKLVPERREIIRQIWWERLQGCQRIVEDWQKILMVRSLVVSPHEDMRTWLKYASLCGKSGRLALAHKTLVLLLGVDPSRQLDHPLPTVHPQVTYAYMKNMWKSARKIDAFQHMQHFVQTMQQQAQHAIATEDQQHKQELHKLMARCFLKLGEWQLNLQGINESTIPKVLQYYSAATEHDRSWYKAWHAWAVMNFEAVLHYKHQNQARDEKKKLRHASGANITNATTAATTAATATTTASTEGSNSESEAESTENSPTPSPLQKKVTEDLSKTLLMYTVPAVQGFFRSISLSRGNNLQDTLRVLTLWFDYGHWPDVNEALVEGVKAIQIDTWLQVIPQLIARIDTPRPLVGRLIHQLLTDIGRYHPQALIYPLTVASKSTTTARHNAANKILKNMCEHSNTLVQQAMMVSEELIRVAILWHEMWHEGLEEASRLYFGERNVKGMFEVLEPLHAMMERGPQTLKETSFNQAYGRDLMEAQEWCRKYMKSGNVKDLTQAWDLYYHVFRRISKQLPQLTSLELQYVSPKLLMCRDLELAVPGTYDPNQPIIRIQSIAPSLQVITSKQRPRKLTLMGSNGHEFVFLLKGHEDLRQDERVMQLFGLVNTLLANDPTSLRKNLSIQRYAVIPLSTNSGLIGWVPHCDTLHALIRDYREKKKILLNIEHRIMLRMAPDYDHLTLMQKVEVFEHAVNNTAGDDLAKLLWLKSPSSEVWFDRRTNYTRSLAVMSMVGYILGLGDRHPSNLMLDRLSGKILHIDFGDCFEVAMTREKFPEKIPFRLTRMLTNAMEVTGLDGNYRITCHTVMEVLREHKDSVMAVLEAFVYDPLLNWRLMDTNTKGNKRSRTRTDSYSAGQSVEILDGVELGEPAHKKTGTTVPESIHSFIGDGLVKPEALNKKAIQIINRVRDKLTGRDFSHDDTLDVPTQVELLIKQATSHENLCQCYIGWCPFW

SMILES	mTOR inhibition @ 1 μM (human mTOR)	IC50 (human FGFR-3) [nM]	IC50 [1] [nM]	IC50 (human FGFR-3; dihydrochloride) [nM]	IC50 (human FGFR-1) [nM]
COc1cc(C)cc2cc(-c3c(CN4CCC(O)C4)c(CN4CCNCC4)n4ncnc(N)c34)sc12 (racemic) [Example 42, rac-1-{[4-Amino-5-(7-methoxy-5-methyl-1-benzothiophen-2-yl)-7-(piperazin-1-ylmethyl)pyrrolo-[2,1-f][1,2,4]triazin-6-yl]methyl}pyrrolidin-3-ol trihydrochloride]	no inhib. effect detect.	18.4			
CCOCc1c(-c2cc3cc(C)cc(OC)c3s2)c2c(N)ncnn2c1CN1CCN(C(C)=O)CC1 [Example 11, 1-(4-{[4-Amino-6-(ethoxymethyl)-5-(7-methoxy-5-methyl-1-benzothiophen-2-yl)pyrrolo[2,1-f]-[1,2,4]triazin-7-yl]methyl}piperazin-1-yl)ethanone dihydrochloride]			150	13	
COCc1c(-c2cc3cc(C)cc(OC)c3s2)c2c(N)ncnn2c1CN1CC[C@](C)(N)C1 [Example 14, 7-{[(3S)-3-Amino-3-methylpyrrolidin-1-yl]methyl}-6-(methoxymethyl)-5-(7-methoxy-5-methyl-1-benzothiophen-2-yl)pyrrolo[2,1-f][1,2,4]triazin-4-amine trihydrochloride]			25		1.4
COCc1c(-c2cc3cc(C)cc(OC)c3s2)c2c(N)ncnn2c1CN1CCN(C(C)=O)CC1 [Example 16, 1-(4-{[4-Amino-6-(methoxymethyl)-5-(7-methoxy-5-methyl-1-benzothiophen-2-yl)pyrrolo[2,1-f]-[1,2,4]triazin-7-yl]methyl}piperazin-1-yl)ethanone dihydrochloride]			117		
COCCOCc1c(-c2cc3cc(C)cc(OC)c3s2)c2c(N)ncnn2c1CN1CCNCC1 [Example 28, 6-[(2-Methoxyethoxy)methyl]-5-(7-methoxy-5-methyl-1-benzothiophen-2-yl)-7-(piperazin-1-ylmethyl)pyrrolo[2,1-f][1,2,4]triazin-4-amine formiate]	no inhib. effect detect.	9.7			2.1
CCNCc1c(-c2cc3cc(C)cc(OC)c3s2)c2c(N)ncnn2c1CN1CCNCC1 [Example 38, 6-[(Ethylamino)methyl]-5-(7-methoxy-5-methyl-1-benzothiophen-2-yl)-7-(piperazin-1-ylmethyl)pyrrolo[2,1-f][1,2,4]triazin-4-amine trihydrochloride]			213		
COc1cc(C)cc2cc(-c3c(CNCCO)c(CN4CCNCC4)n4ncnc(N)c34)sc12 [Example 39, 2-({[4-Amino-5-(7-methoxy-5-methyl-1-benzothiophen-2-yl)-7-(piperazin-1-ylmethyl)pyrrolo-[2,1-f][1,2,4]triazin-6-yl]methyl}amino)ethanol trihydrochloride]			365		
COc1cc(C)cc2cc(-c3c(CN4CCC(O)CC4)c(CN4CCNCC4)n4ncnc(N)c34)sc12 [Example 41, 1-{[4-Amino-5-(7-methoxy-5-methyl-1-benzothiophen-2-yl)-7-(piperazin-1-ylmethyl)pyrrolo-[2,1-f][1,2,4]triazin-6-yl]methyl}piperidin-4-ol trihydrochloride]	no inhib. effect detect.	7.2			2.8
COc1cc(C)cc2cc(-c3c(CN4CCCC4)c(CN4CCNCC4)n4ncnc(N)c34)sc12 [Example 45, 5-(7-Methoxy-5-methyl-1-benzothiophen-2-yl)-7-(piperazin-1-ylmethyl)-6-(pyrrolidin-1-ylmethyl)pyrrolo[2,1-f][1,2,4]triazin-4-amine trihydrochloride]			171		
COc1cc(C)cc2cc(-c3c(CNC4CC4)c(CN4CCNCC4)n4ncnc(N)c34)sc12 [Example 46, 6-[(Cyclopropylamino)methyl]-5-(7-methoxy-5-methyl-1-benzothiophen-2-yl)-7-(piperazin-1-ylmethyl)pyrrolo[2,1-f][1,2,4]triazin-4-amine trihydrochloride]			84.5		
COc1cc(C)cc2cc(-c3c(CNCC(=O)O)c(CN4CCNCC4)n4ncnc(N)c34)sc12 [Example 48, N-{[4-Amino-5-(7-methoxy-5-methyl-1-benzothiophen-2-yl)-7-(piperazin-1-ylmethyl)pyrrolo-[2,1-f][1,2,4]triazin-6-yl]methyl}glycine trihydrochloride]		45.4	360		
COc1cc(C)cc2cc(-c3c(CNC(C)=O)c(CN4CCNCC4)n4ncnc(N)c34)sc12 [Example 64, N-{[4-Amino-5-(7-methoxy-5-methyl-1-benzothiophen-2-yl)-7-(piperazin-1-ylmethyl)pyrrolo-[2,1-f][1,2,4]triazin-6-yl]methyl}acetamide dihydrochloride]			4.5		
COCc1c(-c2cc3cc(C)ccc3s2)c2c(N)ncnn2c1CN1CCNC(=O)C1 [Example 89, 4-{[4-Amino-6-(methoxymethyl)-5-(5-methyl-1-benzothiophen-2-yl)pyrrolo[2,1-f][1,2,4]triazin-7-yl]methyl}piperazin-2-one]	no inhib. effect detect.				82.9
CCOCc1c(-c2cc3cc(C)cc(OC)c3s2)c2c(N)ncnn2c1CN1CCC(O)CC1 [Example 98]	no inhib. effect detect.				17
CCOCc1c(-c2cc3cc(C)cc(OC)c3s2)c2c(N)ncnn2c1C(=O)N1CCNC(=O)C1 [Example 107, 4-{[4-Amino-6-(ethoxymethyl)-5-(7-methoxy-5-methyl-1-benzothiophen-2-yl)pyrrolo[2,1-f]-[1,2,4]triazin-7-yl]carbonyl}piperazin-2-one]	no inhib. effect detect.	17.4			9.4
CCOCc1c(-c2cc3cc(C)cc(OC)c3s2)c2c(N)ncnn2c1C(=O)N1CCS(=O)(=O)C1 [Example 119]	no inhib. effect detect.	4.5			9
CCOCc1c(-c2cc3cc(C)cc(OC)c3s2)c2c(N)ncnn2c1C(=O)N1CCC(O)CC1 [Example 121]	no inhib. effect detect.	24.6			8.2
